# Source: US12653800B2, “Small molecule inhibitors of TLR2 signaling” (University of Maryland, Baltimore, priority 2015, dated 2026)
# How the values were obtained:
# TLR2/6 = TLR2/6 (Homo sapiens, UniProt O60603); assay: P2C-induced IL-8 mRNA (qRT-PCR) in HEK-TLR2 stable transfectants; assay type: cell-based; set-up: expressed in transfected cells; details: 100 μM compound, 1 hr pretreatment, P2C 5 ng/mL 1 hr, HEK-TLR2 cells; read-out: decrease of P2C-induced IL-8 mRNA
# [1] = in vivo; stated for o-vanillin, reported previously for its isomer vanillin (Beaudry 2010); cited from earlier work
# TLR2/1 = TLR2/1 (Mus musculus, UniProt Q9QUN7); assay: Cytokine mRNA/protein in murine peritoneal macrophages stimulated with TLR2/1 agonists (P3C, LTA SA); assay type: cell-based; details: murine macrophages, 25 μM or 50 μM, P3C 50 ng/mL 1 hr
# TLR2/1, sequence (Q9QUN7 25-784): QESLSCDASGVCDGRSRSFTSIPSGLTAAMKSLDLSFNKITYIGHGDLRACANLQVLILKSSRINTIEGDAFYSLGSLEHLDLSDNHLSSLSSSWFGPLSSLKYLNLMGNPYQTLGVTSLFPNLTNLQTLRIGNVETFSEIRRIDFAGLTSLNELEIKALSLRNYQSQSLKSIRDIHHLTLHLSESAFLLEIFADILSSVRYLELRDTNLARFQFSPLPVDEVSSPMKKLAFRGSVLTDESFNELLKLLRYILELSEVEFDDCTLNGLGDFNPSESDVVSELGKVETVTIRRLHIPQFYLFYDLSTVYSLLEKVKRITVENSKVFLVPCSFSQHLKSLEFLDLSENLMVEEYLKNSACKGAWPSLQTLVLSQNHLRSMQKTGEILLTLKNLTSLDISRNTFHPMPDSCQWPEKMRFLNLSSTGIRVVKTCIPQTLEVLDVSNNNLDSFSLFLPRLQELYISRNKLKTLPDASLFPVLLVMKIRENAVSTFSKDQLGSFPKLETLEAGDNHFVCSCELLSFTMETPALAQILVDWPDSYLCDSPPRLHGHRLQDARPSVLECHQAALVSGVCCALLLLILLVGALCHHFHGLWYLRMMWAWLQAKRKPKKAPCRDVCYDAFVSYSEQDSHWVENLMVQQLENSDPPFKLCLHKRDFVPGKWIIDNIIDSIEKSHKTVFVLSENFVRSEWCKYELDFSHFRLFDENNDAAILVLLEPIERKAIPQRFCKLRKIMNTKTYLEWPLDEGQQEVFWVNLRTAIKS
# TLR2/6, sequence (O60603 21-784): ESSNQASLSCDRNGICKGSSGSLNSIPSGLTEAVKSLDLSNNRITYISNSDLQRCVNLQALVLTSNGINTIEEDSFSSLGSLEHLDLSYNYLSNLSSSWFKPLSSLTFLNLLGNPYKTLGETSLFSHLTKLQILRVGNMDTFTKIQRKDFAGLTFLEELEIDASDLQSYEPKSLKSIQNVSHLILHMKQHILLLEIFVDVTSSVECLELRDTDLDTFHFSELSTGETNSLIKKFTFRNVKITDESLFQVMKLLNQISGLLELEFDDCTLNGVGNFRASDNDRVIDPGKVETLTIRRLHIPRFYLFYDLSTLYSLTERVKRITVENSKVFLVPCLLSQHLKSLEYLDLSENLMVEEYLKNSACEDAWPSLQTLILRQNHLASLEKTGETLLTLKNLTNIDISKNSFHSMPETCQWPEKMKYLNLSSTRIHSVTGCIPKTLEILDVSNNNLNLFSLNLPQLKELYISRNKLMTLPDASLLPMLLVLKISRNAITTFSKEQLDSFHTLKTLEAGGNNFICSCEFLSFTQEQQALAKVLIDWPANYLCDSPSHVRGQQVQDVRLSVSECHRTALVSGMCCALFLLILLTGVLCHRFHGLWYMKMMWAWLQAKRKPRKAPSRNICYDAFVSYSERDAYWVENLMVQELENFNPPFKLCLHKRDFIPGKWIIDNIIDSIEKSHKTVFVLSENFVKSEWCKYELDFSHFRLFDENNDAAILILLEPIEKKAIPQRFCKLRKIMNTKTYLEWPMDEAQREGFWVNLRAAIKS
inhibition at 100 µM (TLR2/6) [%],Compound,other results
≥ 50,COc1ccc(-c2nc(CSCC(=O)NCc3cccnc3)c(C)o2)cc1OC [Compound C26],–
≥ 50,CN(CC(=O)Nc1ccc2c(c1)OCO2)S(=O)(=O)c1cccs1 [Compound C24],–
≥ 50,COc1cccc(-c2nc(CSCC(=O)NCCN3CCOCC3)c(C)o2)c1 [Compound C25],–
–,"COc1cc(C=O)ccc1O [vanillin, reference compound]",bioavailability [1]: poor bioavailability
≥ 50,CCN(CCCNc1nc(=S)[nH]c2ccccc12)c1ccccc1 [Compound C32],–
≥ 50,Cc1ccc(S(=O)(=O)NCCC(=O)NCCc2ccccc2)cc1 [Compound C33],–
–,"Cc1c(N)cccc1C(=O)O [Compound C29R, 3-amino-2-methylbenzoic acid, reference compound]","TLR2/1-induced TNF-α gene expression (TLR2/1): but not C29R, dose-dependently inhibited"
≥ 50,O=C(CCC1N=C2c3ccccc3NC(=S)N2C1=O)NCc1ccco1 (centres unmarked) [Compound C30],–
